Patent publication US20240368120A1 (Terns Pharmaceuticals, Inc., priority 2023, published 2024)

Molecular target: T1, human GLP-1R receptor (Homo sapiens, UniProt P43220)
T1 construct: expressed in transfected cells
Assay: GLP-1R low expression cell assay (cAMP TR-FRET, CHO-K1_hGLP-1Rlow_clone10 cells)
Assay type: cell-based
Details: for EC50: cAMP TR-FRET, 30 min at 25° C.; for Emax: maximum activation relative to control GLP-1 peptide agonist
Outline: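 CHO-K1 cells stably expressing low surface human GLP-1R (clone10), 1,000 cells/well, exposed to 10-point 3-fold compound dilutions for 30 min at 25 °C. cAMP measured by TR-FRET (Eu-cAMP tracer/ULight-anti-cAMP, 15 min). EC50 from Hill fit of duplicate percent activation relative to a parallel GLP-1 control agonist.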

T1 sequence (P43220 24-463): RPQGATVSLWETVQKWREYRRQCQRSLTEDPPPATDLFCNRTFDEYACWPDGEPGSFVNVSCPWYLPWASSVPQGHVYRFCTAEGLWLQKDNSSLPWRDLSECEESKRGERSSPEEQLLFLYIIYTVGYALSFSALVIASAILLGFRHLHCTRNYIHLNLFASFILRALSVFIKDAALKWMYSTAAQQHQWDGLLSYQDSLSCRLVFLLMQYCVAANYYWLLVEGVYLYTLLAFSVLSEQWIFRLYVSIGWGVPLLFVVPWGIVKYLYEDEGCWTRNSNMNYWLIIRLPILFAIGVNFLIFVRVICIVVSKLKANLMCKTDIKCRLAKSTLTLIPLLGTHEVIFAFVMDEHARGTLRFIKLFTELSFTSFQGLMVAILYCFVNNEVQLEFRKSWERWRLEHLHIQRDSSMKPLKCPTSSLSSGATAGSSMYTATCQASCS

Compound | EC50 [nM] | Emax [%]
CCOc1cc(C(=O)O)cc2c1nc(CN1CCC(c3cccc4c3OC[C@@H](c3ccc(Cl)cc3F)O4)CC1)n2C [Compound 269, (R)-2-((4-(2-(4-chloro-2-fluorophenyl)-2,3-dihydrobenzo[b][1,4]dioxin-5-yl)piperidin-1-yl)methyl)-4-ethoxy-1-methyl-1H-benzo[d]imidazole-6-carboxylic acid] | 100 to 1000 | > 85
COc1cc(C(=O)O)cc2c1nc(CN1CCC(c3cccc4c3O[C@H](c3ccc(Cl)cc3F)CO4)CC1)n2C [Compound 267, (R)-2-((4-(3-(4-Chloro-2-fluorophenyl)-2,3-dihydrobenzo[b][1,4]dioxin-5-yl)piperidin-1-yl)methyl)-4-methoxy-1-methyl-1H-benzo[d]imidazole-6-carboxylic acid] | 100 to 1000 | > 85
COc1cc(C(=O)O)cc2c1nc(CN1CCC(c3cccc4c3OC[C@H](c3ccc(C#N)cc3F)O4)CC1)n2C [Compound 274, (S)-2-((4-(2-(4-Cyano-2-fluorophenyl)-2,3-dihydrobenzo[b][1,4]dioxin-5-yl)piperidin-1-yl)methyl)-4-methoxy-1-methyl-1H-benzo[d]imidazole-6-carboxylic acid] | > 1000 | < 25
COc1c(OCc2ccc(Cl)cc2F)cccc1C1CCN(Cc2nc3c(OC(F)F)cc(C(=O)O)cc3n2C)CC1 [Compound 171, 2-((4-(3-((4-Chloro-2-fluorobenzyl)oxy)-2-methoxyphenyl)piperidin-1-yl)methyl)-4-(difluoromethoxy)-1-methyl-1H-benzo[d]imidazole-6-carboxylic acid] | > 1000 | < 25
CO[C@H]1C[C@@H](Oc2cc(C(=O)O)cc3c2nc(CN2CCC(c4cccc(OCc5ccc(C#N)cc5F)n4)CC2)n3C)C1 [Compound 318, 2-((4-(6-((4-Cyano-2-fluorobenzyl)oxy)pyridin-2-yl)piperidin-1-yl)methyl)-4-((1s,3s)-3-methoxycyclobutoxy)-1-methyl-1H-benzo[d]imidazole-6-carboxylic acid] | 100 to 1000 | > 85
CN(c1nc2c(OC(F)F)cc(C(=O)O)cc2n1C[C@@H]1CCO1)[C@H]1CC[C@@H](c2cccc(OCc3ccc(C#N)cc3F)n2)CC1 [Compound 131, 2-(((1s,4R)-4-(6-((4-cyano-2-fluorobenzyl)oxy)pyridin-2-yl)cyclohexyl) (methyl)amino)-4-(difluoromethoxy)-1-(((S)-oxetan-2-yl)methyl)-1H-benzo[d]imidazole-6-carboxylic acid] | 100 to 1000 | > 85
Cn1c(CN2CCC(c3cccc(OCc4ccc(F)cc4)n3)CC2)nc2c(OC(F)F)cc(C(=O)O)cc21 [Compound 254, 4-(Difluoromethoxy)-2-((4-(6-((4-fluorobenzyl)oxy)pyridin-2-yl)piperidin-1-yl)methyl)-1-methyl-1H-benzo[d]imidazole-6-carboxylic acid] | 100 to 1000 | 
Cn1c(CN2CCC(c3ccc4ccn(Cc5ccc(Cl)cc5F)c4n3)CC2)nc2c(OC(F)F)cc(C(=O)O)cc21 [Compound 205, 2-((4-(1-(4-Chloro-2-fluorobenzyl)-1H-pyrrolo[2,3-b]pyridin-6-yl)piperidin-1-yl)methyl)-4-(difluoromethoxy)-1-methyl-1H-benzo[d]imidazole-6-carboxylic acid] | > 1000 | 50 to 85
Cn1c(CN2CCC(c3cccc(OCc4ccc(C#N)cn4)n3)CC2)nc2c(OC(F)F)cc(C(=O)O)cc21 [Compound 213, 2-((4-(6-((5-Cyanopyridin-2-yl)methoxy)pyridin-2-yl)piperidin-1-yl)methyl)-4-(difluoromethoxy)-1-methyl-1H-benzo[d]imidazole-6-carboxylic acid] | 100 to 1000 | > 85

Second part, the compound after the results:

EC50 [nM] | Emax [%] | Compound
10 to 100 | > 85 | COc1cc(C(=O)O)nc2c1nc(CN1CCC(c3cccc(OCc4ccc(C#N)cc4F)n3)CC1)n2C [Compound 323, 2-((4-(6-((4-Cyano-2-fluorobenzyl)oxy)pyridin-2-yl)piperidin-1-yl)methyl)-7-methoxy-3-methyl-3H-imidazo[4,5-b] pyridine-5-carboxylic acid]
< 10 | > 85 | CCOc1cc(C(=O)O)cc2c1nc(CN1CCC(Oc3cccc(COc4ccc(Cl)cc4F)n3)CC1)n2C [Compound 256, 2-((4-((6-((4-chloro-2-fluorophenoxy)methyl)pyridin-2-yl)oxy)piperidin-1-yl)methyl)-4-ethoxy-1-methyl-1H-benzo[d]imidazole-6-carboxylic acid]
< 10 | > 85 | N#Cc1ccc(COc2cccc(C3CCN(Cc4nc5c6c(c(C(=O)O)cc5n4C[C@@H]4CCO4)OCCO6)CC3)n2)c(F)c1 [Compound 100, (S)-2-((4-(6-((4-Cyano-2-fluorobenzyl)oxy)pyridin-2-yl)piperidin-1-yl)methyl)-3-(oxetan-2-ylmethyl)-7,8-dihydro-3H-[1,4]dioxino[2′,3′:3,4]benzo[1,2-d]imidazole-5-carboxylic acid]
10 to 100 | > 85 | Cn1c(CN2CCC(c3nccc(OCc4ccc(Cl)cc4F)n3)CC2)nc2c(OC(F)F)cc(C(=O)O)cc21 [Compound 168, 2-((4-(4-((4-Chloro-2-fluorobenzyl)oxy)pyrimidin-2-yl)piperidin-1-yl)methyl)-4-(difluoromethoxy)-1-methyl-1H-benzo[d]imidazole-6-carboxylic acid]
< 10 | > 85 | [2H]C([2H])([2H])Oc1cc(C(=O)O)cc2c1nc(CN1CCC(c3cccc(OCc4ccc(C#N)cc4F)n3)CC1)n2C [Compound 349, 2-((4-(6-((4-Cyano-2-fluorobenzyl)oxy)pyridin-2-yl)piperidin-1-yl)methyl)-4-(methoxy-d3)-1-methyl-1H-benzo[d]imidazole-6-carboxylic acid]
10 to 100 | > 85 | Cn1c(CN2CCC(c3cccc(OCc4ccc(Cl)cc4F)n3)CC2)nc2c(OCC#N)cc(C(=O)O)cc21 [Compound 202]
< 10 | > 85 | COCCn1c(CN2CCC(c3cccc(OCc4ccc(C#N)cc4F)n3)CC2)nc2c(OC(F)F)cc(C(=O)O)cc21 [Compound 106, 2-((4-(6-((4-Cyano-2-fluorobenzyl)oxy)pyridin-2-yl)piperidin-1-yl)methyl)-4-(difluoromethoxy)-1-(2-methoxyethyl)-1H-benzo[d]imidazole-6-carboxylic acid]
< 10 | > 85 | Cn1c(CN2CCC(c3cccc(OCc4ccc(Cl)cc4OC(F)F)n3)CC2)nc2c(OC(F)F)cc(C(=O)O)cc21 [Compound 246, 2-((4-(6-((4-Chloro-2-(difluoromethoxy)benzyl)oxy)pyridin-2-yl)piperidin-1-yl)methyl)-4-(difluoromethoxy)-1-methyl-1H-benzo[d]imidazole-6-carboxylic acid]
< 10 |  | COc1cc(C(=O)O)cc2c1nc(CN1CCC(c3cccc4c3O[C@@](C)(c3ccc(Cl)cn3)O4)CC1)n2Cc1cncs1 [Compound 32, (S)-2-((4-(2-(5-Chloropyridin-2-yl)-2-methylbenzo[d][1,3]dioxol-4-yl)piperidin-1-yl)methyl)-4-methoxy-1-(thiazol-5-ylmethyl)-1H-benzo[d]imidazole-6-carboxylic acid]
